PMC12067145 (ACS Medicinal Chemistry Letters, 2025)

Legend:
Sodium Channel, Site 2 = assay: Eurofins lead profiling screen (radioligand binding); design: species or system Rat
[1] = Brain homogenate binding (rat); format: in vitro ADME
Procedure: 0.3% DMSO - ΔRatio of 1 µM control compound)x100
In vitro Plasma protein binding and Brain homogenate binding: Determination of fraction unbound (f u) in plasma was conducted in vitro via equilibrium dialysis using HTDialysis (HTD) membrane plates. The top half of the plate was filled with 100 uL of Dubelco’s Phosphate Buffered Saline, pH 7.4 (DPBS). Compounds were diluted into plasma from each species (5 µM final concentration), which was aliquoted in triplicate to the ‘bottom half’ of the prepared HTD plate wells. The HTD plate was sealed and incubated for 6 hours at 37 °C. […]
The unbound fraction (f u) was calculated following the equation below, and mean values for each species were calculated from 3 replicates. […] Fraction unbound for both plasma and brain samples was determined using Equation 4. […]
The diluted fraction unbound (fu2) in brain was calculated in the same manner by using brain homogenate rather than plasma. Undiluted fraction unbound for the brain was calculated using […]
were incubated in 100 mM potassium phosphate pH 7.4 buffer with 3 mM MgCl2 at 37 °C with constant shaking. […] The in vitro half-life (T 1/2, min, Eq. 1), intrinsic clearance (CLint, mL/min/kg, Eq. 2), and subsequent predicted hepatic clearance (CLhep, mL/min/kg, Eq. 3) were determined employing the following equations: […]

[2] = Liver microsome intrinsic clearance (rat); format: in vitro ADME; settings: pH 7.4; rat liver microsomes; read-out: LMS CLINT rat
Procedure: After a 5 min preincubation, the reaction was initiated by the addition of NADPH (1 mM). At selected time intervals between 0 ~ 60 min (e.g. 0, 3, 7, 15, 25, 45 and/or 60 min), aliquots were taken and subsequently placed into a 96-well plate containing cold acetonitrile with an internal standard (50 ng/mL carbamazepine). Plates were then centrifuged at 3000 rcf (4 °C) for 10 min, and the supernatant was transferred to a separate 96-well plate and diluted 1:1 with water for LC/MS/MS analysis. The in vitro half-life (T 1/2, min, Eq. 1), intrinsic clearance (CLint, mL/min/kg, Eq. 2), and subsequent predicted hepatic clearance (CLhep, mL/min/kg, Eq. 3) were determined employing the following equations: […]
where k represents the slope from linear regression analysis of the natural log percent remaining of a test compound as a function of incubation time […]
(2) CLint = in vitroT1/2 x mg microsomes x gram liver x kg body wt ascale-up factors: of 20 (human) or 45 (rat) or 87.5 (mouse) […]
where Qh (hepatic blood flow, mL/min/kg) is 21 (human) or 70 (rat) or 90 (mouse).
LC/MS/MS Bioanalysis of Samples from Plasma Protein Binding and Intrinsic Clearance […]
Samples were analyzed on a Thermo Electron TSQ Quantum Ultra triple quad mass spectrometer (San Jose, CA) via electrospray ionization (ESI) with two Themo Electron Accella pumps (San Jose, CA), and a Leap Technologies CTC PAL autosampler (Carrboro, NC). Analytes were separated by gradient elution on a dual column system with two Thermo Hypersil Gold (2.1 x 30 mm, 1.9 µm) columns (San Jose, CA) thermostated at 40 °C. HPLC mobile phase A was 0.1% formic acid in water and mobile phase B was 0.1% formic acid in acetonitrile. The gradient started […]
for 0.2 min; returned to 10% B in 0.1 min. The total run time was 1.3 min and the HPLC flow rate was 0.8 mL/min. While pump 1 ran the gradient method, pump 2 equilibrated the alternate column isocratically at 10% B. Compound optimization, data collection, and processing were performed using Thermo Electron's QuickQuan software (v2.3) and Xcalibur (v2.0.7 SP1). […]

Adenosine A3 = molecular target: T1, Adenosine A3 (Homo sapiens, UniProt P0DMS8); assay: Eurofins lead profiling screen (radioligand binding)
T1 construct: Eurofins
T1 sequence (P0DMS8 whole entry): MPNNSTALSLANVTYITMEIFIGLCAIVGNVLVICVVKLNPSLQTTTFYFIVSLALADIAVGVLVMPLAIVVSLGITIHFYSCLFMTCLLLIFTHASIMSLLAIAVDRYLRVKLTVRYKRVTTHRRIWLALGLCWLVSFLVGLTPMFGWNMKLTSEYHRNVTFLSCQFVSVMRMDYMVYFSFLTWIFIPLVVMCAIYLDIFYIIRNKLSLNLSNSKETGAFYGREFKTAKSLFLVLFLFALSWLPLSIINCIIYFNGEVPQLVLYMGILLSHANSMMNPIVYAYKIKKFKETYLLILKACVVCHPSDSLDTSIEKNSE

[3] = molecular target: Transporter, Dopamine (DAT) (Homo sapiens, UniProt Q01959); assay: as above
[4] = molecular target: Nicotinic Acetylcholine α1, Bungarotoxin (Homo sapiens, UniProt P02708+P07510+Q07001); assay: biochemical; format: binding; settings: read-out: % Inhibition at 10 µM
Nicotinic Acetylcholine α1, Bungarotoxin, sequence (P11230 24-501): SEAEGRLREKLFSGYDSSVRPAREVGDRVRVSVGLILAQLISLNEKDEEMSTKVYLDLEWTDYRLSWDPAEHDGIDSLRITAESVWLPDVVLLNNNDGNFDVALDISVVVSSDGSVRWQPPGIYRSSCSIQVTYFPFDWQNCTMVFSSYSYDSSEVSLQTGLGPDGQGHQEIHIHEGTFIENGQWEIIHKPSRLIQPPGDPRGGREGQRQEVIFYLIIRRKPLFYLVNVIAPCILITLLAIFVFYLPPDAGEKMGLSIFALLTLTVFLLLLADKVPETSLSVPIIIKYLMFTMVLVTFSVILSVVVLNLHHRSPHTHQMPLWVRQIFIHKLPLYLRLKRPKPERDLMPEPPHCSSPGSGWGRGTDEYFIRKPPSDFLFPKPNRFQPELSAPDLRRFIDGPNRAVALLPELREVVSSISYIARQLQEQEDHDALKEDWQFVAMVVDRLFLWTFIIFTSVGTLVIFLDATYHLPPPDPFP
Nicotinic Acetylcholine α1, Bungarotoxin, sequence (P02708 21-457): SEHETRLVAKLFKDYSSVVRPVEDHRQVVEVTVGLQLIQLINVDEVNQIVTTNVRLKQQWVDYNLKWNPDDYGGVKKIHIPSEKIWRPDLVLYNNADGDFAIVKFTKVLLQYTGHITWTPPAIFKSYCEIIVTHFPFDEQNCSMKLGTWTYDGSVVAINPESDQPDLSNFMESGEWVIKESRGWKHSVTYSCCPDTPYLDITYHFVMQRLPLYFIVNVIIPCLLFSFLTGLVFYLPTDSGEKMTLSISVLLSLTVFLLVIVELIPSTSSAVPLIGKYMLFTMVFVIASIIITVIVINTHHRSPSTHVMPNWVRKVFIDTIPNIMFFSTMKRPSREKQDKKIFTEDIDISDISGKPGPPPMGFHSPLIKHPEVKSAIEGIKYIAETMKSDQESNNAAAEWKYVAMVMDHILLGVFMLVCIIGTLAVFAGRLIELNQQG
Nicotinic Acetylcholine α1, Bungarotoxin, sequence (P07510 23-517): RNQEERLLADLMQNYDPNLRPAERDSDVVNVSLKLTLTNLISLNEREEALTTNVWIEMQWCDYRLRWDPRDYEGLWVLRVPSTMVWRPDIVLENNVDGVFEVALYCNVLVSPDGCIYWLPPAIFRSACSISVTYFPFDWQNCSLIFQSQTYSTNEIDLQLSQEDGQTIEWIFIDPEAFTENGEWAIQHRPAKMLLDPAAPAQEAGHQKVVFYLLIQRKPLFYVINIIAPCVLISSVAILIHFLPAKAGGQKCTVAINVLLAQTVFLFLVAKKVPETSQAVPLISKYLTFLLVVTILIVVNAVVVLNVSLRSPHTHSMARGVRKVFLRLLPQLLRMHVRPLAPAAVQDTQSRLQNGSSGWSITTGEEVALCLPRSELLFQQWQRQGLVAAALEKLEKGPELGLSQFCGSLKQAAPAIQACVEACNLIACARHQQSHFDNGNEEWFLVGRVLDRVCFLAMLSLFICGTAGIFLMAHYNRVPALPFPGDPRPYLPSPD
Nicotinic Acetylcholine α1, Bungarotoxin, sequence (Q07001 22-517): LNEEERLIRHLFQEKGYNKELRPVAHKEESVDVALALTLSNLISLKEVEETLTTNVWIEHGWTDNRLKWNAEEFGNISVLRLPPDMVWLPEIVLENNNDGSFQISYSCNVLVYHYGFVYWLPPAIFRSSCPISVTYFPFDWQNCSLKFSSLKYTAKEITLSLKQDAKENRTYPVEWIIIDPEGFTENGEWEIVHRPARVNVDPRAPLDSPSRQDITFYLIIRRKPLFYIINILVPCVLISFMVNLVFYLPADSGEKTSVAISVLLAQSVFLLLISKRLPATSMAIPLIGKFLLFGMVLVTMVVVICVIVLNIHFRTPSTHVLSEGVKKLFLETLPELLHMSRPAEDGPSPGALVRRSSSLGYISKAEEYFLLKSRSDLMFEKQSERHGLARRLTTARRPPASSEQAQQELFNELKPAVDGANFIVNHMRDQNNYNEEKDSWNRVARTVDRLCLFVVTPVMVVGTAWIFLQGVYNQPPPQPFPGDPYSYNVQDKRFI

[5] = molecular target: Platelet Activating Factor (PAF) (Homo sapiens, UniProt P25105); assay: Eurofins lead profiling screen (radioligand binding)
Platelet Activating Factor (PAF), sequence (P25105 whole entry): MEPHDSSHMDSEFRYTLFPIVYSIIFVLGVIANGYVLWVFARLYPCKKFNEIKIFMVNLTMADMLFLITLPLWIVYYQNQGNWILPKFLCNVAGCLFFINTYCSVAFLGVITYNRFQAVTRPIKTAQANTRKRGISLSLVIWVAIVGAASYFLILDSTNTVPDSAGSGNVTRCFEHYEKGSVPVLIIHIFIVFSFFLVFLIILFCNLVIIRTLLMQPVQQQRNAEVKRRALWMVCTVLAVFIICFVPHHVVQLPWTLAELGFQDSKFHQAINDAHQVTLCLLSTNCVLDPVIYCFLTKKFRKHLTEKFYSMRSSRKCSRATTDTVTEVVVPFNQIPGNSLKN

Thyroid Hormone = assay: as above; design: species or system Rat
Purinergic P2X = assay: as above; design: species or system Rat
Calcium Channel N-Type = Calcium Channel N-Type (Rattus norvegicus, UniProt Q02294); assay: as above
Calcium Channel N-Type, sequence (Q02294 whole entry): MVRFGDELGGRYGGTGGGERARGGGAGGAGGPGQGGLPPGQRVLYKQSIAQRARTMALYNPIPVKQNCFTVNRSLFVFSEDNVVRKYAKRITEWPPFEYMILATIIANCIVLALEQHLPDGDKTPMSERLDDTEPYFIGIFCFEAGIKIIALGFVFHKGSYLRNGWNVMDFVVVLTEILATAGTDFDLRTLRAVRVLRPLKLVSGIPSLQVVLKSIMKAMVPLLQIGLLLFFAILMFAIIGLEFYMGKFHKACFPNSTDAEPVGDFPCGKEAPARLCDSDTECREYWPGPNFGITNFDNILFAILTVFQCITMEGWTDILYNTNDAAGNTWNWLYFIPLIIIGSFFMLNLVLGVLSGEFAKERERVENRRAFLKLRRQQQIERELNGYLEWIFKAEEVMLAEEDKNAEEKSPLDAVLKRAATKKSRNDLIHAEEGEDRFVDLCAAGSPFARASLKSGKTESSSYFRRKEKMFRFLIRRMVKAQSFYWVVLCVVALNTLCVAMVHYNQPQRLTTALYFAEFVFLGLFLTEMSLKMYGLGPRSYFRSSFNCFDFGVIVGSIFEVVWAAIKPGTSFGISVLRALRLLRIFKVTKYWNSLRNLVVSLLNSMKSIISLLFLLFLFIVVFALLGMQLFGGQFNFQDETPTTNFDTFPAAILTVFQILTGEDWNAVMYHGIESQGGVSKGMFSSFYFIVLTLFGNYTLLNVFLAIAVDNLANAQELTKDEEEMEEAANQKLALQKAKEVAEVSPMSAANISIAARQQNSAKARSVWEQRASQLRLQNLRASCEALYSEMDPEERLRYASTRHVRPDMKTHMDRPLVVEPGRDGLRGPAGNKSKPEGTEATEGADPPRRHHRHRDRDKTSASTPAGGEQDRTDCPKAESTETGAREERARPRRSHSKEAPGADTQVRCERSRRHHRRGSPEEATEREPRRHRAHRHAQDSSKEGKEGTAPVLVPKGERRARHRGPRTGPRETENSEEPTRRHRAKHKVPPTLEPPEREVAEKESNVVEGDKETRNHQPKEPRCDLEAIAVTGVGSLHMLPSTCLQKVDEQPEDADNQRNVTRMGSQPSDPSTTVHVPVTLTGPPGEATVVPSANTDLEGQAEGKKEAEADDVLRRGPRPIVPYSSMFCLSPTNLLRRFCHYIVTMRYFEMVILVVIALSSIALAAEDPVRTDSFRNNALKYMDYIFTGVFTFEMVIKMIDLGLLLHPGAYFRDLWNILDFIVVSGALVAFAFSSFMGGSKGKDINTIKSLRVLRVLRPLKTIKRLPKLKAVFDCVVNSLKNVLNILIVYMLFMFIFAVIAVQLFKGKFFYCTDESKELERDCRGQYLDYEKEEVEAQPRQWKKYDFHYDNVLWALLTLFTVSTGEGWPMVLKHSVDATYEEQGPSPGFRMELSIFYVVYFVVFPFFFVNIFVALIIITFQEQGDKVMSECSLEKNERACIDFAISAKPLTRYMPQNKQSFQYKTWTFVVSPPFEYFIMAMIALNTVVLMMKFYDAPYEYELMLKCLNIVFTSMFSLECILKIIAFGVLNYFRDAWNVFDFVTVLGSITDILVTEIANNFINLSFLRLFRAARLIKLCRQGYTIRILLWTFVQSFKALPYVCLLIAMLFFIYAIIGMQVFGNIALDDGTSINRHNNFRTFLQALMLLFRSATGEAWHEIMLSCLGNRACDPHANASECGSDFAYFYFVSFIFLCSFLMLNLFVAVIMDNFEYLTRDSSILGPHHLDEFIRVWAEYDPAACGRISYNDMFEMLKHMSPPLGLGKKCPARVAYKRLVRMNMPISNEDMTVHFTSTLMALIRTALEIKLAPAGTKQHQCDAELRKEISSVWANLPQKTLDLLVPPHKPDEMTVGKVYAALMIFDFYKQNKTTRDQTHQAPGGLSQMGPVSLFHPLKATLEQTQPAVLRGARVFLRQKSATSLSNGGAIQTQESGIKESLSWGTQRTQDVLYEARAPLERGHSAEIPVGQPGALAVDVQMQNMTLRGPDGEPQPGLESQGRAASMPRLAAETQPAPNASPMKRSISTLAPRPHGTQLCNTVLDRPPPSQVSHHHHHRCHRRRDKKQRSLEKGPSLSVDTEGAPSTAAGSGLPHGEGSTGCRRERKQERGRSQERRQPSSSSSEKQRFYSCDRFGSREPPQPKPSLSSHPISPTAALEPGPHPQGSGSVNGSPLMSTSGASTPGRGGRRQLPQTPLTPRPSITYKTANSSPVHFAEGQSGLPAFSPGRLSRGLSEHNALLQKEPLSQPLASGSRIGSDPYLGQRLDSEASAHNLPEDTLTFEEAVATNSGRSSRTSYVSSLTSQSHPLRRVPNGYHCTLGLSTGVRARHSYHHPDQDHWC

Endothelin ETA = Endothelin ETA (Homo sapiens, UniProt P25101); assay: as above

| Compound | Ki (Sodium Channel, Site 2) | brain homogenate binding rat [1] | CLint scaled at 1 µM [2] | Ki (Adenosine A3) | % Inhibition at 10 µM (Sodium Channel, Site 2; 10 µM) | inhibition at 10 µM [3] | inhibition at 10 µM [4] | inhibition at 10 µM [5] | % Inhibition at 10 µM (Thyroid Hormone) | inhibition at 10 µM (Adenosine A3) | % Inhibition at 10 µM (Purinergic P2X) | inhibition at 10 µM (Calcium Channel N-Type) | inhibition at 10 µM (Endothelin ETA) |
| --- | --- | --- | --- | --- | --- | --- | --- | --- | --- | --- | --- | --- | --- |
| Cc1cc(C#Cc2ccc(F)cc2)cnc1NC(=O)c1cc(NC(=O)OC(C)(C)C)ccc1Cl [Compound 14c] | 650 nM | > 99.9% | 29 mL/min/kg | 480 nM |  |  |  |  |  |  |  |  |  |
| O=C(NCc1ccc(OC(F)(F)F)cc1F)c1ccc2ncnn2c1 [ONO-2920632] |  |  |  |  | 84% | 23% | -4% | 26% | 3% | 84% | 1% | 4% | -11% |
